From BindingDB's records for doi:10.1021/jm030233b (Pharmacia, 2003)

Biological target: Prothrombin (Homo sapiens, UniProt P00734)
Experiment: Thrombin Assay
Conditions: pH 8; 22 °C
Protocol: Human thrombin and substrate were added to a 96-well assay plate containing inhibitor in reaction buffer. […] All compounds were assayed in duplicate at seven concentrations. Percent inhibition at each concentration was calculated from OD405nm value from the experimental and control sample. IC50 values were calculated from a four-parameter logistic regression equation.

IC50 | Structure (SMILES)
26.9 µM | N=C(N)c1ccc(CNC(=O)Cc2c(F)ccc(NS(=O)(=O)Cc3ccccc3)c2F)cc1 [N-[(4-carbamimidoylphenyl)methyl]-2-[2,6-difluoro-3-(phenylmethanesulfonamido)phenyl]acetamide]
1.56 µM | N=C(N)c1ccc(CNC(=O)Cc2c(F)ccc(NCCc3ccccc3)c2F)cc1 [N-[(4-carbamimidoylphenyl)methyl]-2-{2,6-difluoro-3-[(2-phenylethyl)amino]phenyl}acetamide]
6.8 µM | N=C(N)c1ccc(CNC(=O)Cc2c(-c3ccccc3)ccc(NCCc3ccccc3)c2O)cc1 [N-[(4-carbamimidoylphenyl)methyl]-2-{2-hydroxy-6-phenyl-3-[(2-phenylethyl)amino]phenyl}acetamide]

The next lines start with the compound.

Structure (SMILES) | IC50
N=C(N)c1ccc(CNC(=O)Cc2c(-c3cccc(N)c3)ccc(NCc3ccccc3)c2F)cc1 [2-[6-(3-aminophenyl)-3-(benzylamino)-2-fluorophenyl]-N-[(4-carbamimidoylphenyl)methyl]acetamide] | 10 µM
CC(C)=Nc1cc(O)c(-c2ccccc2)c(CC(=O)NCc2ccc(C(=N)N)cc2)c1O [N-[(4-carbamimidoylphenyl)methyl]-2-[3,6-dioxo-2-phenyl-5-(propan-2-ylamino)cyclohexa-1,4-dien-1-yl]acetamide] | > 30 µM
